Assay results reported in patent publication US20030157670A1 (priority 2002, published 2003).

Assays:
[1] = tested on: capsaicin decomposing/synthesizing enzyme (purified enzyme from Streptomyces mobaraensis IFO13819); experiment: Synthesis of capsaicin analogs from vanillylamine and fatty acids with the enzyme of the invention; type: biochemical; conditions: vanillylamine hydrochloride 10 mM, fatty acid 100 mM, 30 U enzyme, water/n-hexane, 37° C., 8 days, 0.5 mM CoCl2
Method: Next, capsaicin analogs were synthesized by using the capsaicin decomposing/synthesizing enzyme (purified enzyme from Streptomyces mobaraensis IFO13819) according to the present invention.
(§1) The reaction temperature was 37° C.
(§2) As a comparative example, aminoacylase was used. The resulting capsaicin analogs were quantitatively measured by the HPLC analysis of the hexane phases.

[2] = tested on: aminoacylase; experiment: Synthesis of capsaicin analogs from vanillylamine and fatty acids with aminoacylase (comparative example); type: biochemical; conditions: vanillylamine hydrochloride 10 mM, fatty acid 100 mM, water/n-hexane, 37° C., 8 days, 0.5 mM CoCl2
Method: as §1, §2

[3] = tested on: capsaicin decomposing/synthesizing enzyme (purified enzyme); type: biochemical, Streptomyces mobaraensis IFO 13819
[4] = tested on: capsaicin decomposing/synthesizing enzyme; type: biochemical, Streptomyces mobaraensis IFO 13819

| SMILES | Synthesis of capsaicin analogs, Capsaicin decomposing synthesizing enzyme of the invention [1] [mM] | Synthesis of capsaicin analogs, Aminocylase [2] [mM] | effect on capsaicin hydrolysis activity of the purified enzyme [3] | residual activity, cobalt ions added versus not added [4] |
| --- | --- | --- | --- | --- |
| CCCCCCCCCCCCCC(=O)O [Myristic acid] | 0.24 |  |  |  |
| CCCCCCCCCCCC(=O)O [Lauric acid] | 1.25 | 0.051 |  |  |
| [Cl-].[Cl-].[Co+2] [CoCl2] |  |  | enhanced | higher residual activity |
